# Experimental data reported in ChEMBL document CHEMBL4000171, “Structure-activity relationship studies on 1-(2-oxopropyl)indole-5-carboxylic acids acting as inhibitors of cytosolic phospholipase A2α: Effect of substituents at the indole 3-position on activity, solubility, and metabolic stability” (Eur J Med Chem, 2017).
# Key:
# [1] = target: T1, NADPH--cytochrome P450 reductase (Rattus norvegicus, UniProt P00388); assay: Metabolic stability in rat liver S9 fraction assessed as NADPH CYP450 reductase-mediated compound metabolism by measuring compound remaining in presence of NADPH at 20 uM after 30 mins by HPLC method; format: ADME; conditions: read-out: Stability
# T1 sequence (P00388 whole entry): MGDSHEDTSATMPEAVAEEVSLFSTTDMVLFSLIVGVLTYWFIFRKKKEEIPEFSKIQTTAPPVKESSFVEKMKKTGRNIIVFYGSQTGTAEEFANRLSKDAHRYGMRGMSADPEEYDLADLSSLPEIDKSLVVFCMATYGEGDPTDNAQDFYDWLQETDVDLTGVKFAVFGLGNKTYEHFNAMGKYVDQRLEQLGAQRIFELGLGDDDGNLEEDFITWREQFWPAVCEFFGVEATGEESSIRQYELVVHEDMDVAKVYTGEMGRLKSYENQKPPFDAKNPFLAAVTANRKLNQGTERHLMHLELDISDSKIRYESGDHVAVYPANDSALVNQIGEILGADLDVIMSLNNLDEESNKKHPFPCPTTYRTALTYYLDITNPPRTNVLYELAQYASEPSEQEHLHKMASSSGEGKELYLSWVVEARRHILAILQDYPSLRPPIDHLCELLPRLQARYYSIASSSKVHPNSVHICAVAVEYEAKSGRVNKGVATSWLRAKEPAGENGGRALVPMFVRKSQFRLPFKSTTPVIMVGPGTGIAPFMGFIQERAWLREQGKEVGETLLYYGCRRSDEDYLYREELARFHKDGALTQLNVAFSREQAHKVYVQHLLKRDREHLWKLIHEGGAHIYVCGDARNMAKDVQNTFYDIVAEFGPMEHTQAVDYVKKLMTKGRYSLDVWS
# [2] = target: T2, NADPH--cytochrome P450 reductase (Mus musculus, UniProt P37040); assay: Metabolic stability in CD-1 mouse liver S9 fraction assessed as NADPH CYP450 reductase-mediated compound metabolism by measuring compound remaining in presence of NADPH at 20 uM after 30 mins by HPLC method; format: ADME; conditions: read-out: Stability
# T2 sequence (P37040 whole entry): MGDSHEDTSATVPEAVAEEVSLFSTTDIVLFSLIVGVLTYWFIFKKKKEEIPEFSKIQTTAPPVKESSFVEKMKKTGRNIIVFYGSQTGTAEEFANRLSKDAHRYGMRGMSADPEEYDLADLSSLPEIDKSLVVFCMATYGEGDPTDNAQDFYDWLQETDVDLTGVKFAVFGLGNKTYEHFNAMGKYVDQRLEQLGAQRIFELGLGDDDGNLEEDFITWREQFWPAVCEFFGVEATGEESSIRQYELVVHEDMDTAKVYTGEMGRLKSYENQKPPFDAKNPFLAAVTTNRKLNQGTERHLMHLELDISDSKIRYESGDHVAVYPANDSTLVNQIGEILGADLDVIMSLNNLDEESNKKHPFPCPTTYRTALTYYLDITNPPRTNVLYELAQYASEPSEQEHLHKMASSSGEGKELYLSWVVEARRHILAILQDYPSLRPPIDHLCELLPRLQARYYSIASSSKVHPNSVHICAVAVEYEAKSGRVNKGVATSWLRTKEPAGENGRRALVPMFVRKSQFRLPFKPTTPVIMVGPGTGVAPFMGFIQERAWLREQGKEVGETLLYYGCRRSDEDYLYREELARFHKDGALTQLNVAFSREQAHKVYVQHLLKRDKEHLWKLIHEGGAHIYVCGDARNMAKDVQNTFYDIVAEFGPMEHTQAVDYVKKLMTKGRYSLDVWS
# [3] = target: T1, NADPH--cytochrome P450 reductase; assay: Metabolic stability in rat liver microsomes assessed as NADPH CYP450 reductase-mediated compound metabolism by measuring compound remaining in presence of NADPH at 20 uM after 30 mins by HPLC; format: ADME; conditions: read-out: Stability
# UGT [4] = assay: Metabolic stability in Wistar rat liver S9 fraction assessed as UGT-mediated glucuronidation of compound by measuring compound remaining at 5 uM preincubated for 3 mins followed by UDPGA addition measured after 60 mins by HPLC/MS analysis; format: ADME; conditions: read-out: Stability
# UGT [5] = assay: Metabolic stability in CD-1 mouse liver S9 fraction assessed as UGT-mediated glucuronidation of compound by measuring compound remaining at 5 uM preincubated for 3 mins followed by UDPGA addition measured after 60 mins by HPLC/MS analysis; format: ADME; conditions: read-out: Stability
# [6] = Thermodynamic solubility of the compound in phosphate buffer at pH 7.4 at 1 mg sonicated for 10 mins measured after 20 hrs by reverse phase HPLC analysis; format: physicochemical; conditions: read-out: Therm_solubility
# [7] = target: T3, Cytosolic phospholipase A2 (Homo sapiens, UniProt P47712); assay: Inhibition of human platelet cytosolic phospholipase alpha-2 using 1-stearoyl-2-arachidonoyl-sn-glycero-3-phosphocholine/1,2-dioleoyl-sn-glycerol as substrate after 60 mins by UV-HPLC method
# T3 sequence (P47712 whole entry): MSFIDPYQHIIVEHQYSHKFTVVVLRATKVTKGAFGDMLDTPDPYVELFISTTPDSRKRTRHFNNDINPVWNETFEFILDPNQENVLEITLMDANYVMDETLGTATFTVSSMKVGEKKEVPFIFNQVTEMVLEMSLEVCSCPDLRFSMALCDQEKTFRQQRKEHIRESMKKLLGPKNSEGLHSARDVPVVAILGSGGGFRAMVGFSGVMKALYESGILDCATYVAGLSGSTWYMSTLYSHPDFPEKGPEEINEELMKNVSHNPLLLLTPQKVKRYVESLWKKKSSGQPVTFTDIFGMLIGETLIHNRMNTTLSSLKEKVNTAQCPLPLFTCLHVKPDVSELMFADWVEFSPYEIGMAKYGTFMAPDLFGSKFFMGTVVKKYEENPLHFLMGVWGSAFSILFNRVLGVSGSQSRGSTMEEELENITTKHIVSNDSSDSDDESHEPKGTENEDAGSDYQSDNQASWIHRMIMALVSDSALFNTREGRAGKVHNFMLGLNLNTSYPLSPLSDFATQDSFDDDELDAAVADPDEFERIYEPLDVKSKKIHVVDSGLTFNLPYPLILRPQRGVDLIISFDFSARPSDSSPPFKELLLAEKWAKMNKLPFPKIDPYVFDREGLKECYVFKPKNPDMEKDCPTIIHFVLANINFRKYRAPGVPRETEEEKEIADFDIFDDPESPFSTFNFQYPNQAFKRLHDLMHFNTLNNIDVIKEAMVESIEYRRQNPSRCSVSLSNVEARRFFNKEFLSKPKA
"remaining at 0.5 h, 20 µM [1] [%]","remaining at 0.5 h, 20 µM [2] [%]","remaining at 0.5 h, 20 µM [3] [%]","remaining at 1 h, 5 µM (UGT [4]) [%]","remaining at 1 h, 5 µM (UGT [5]) [%]",solubility thermodynamic at 20 h [6] [µg/mL],IC50 [7] [nM],SMILES
100,86,93,83,78,,,CCCCCCCCc1ccc(OCC(=O)Cn2cc(C(=O)CCCCC)c3cc(C(=O)O)ccc32)cc1
72,78,86,43,27,422,31,CCCCCCCCc1ccc(OCC(=O)Cn2cc(C(=O)CCCCCO)c3cc(C(=O)O)ccc32)cc1
,,,,,246,,COc1ccc2c(c1)c(CC(=O)O)c(C)n2C(=O)c1ccc(Cl)cc1 [INDOMETHACIN]
